In PubChem BioAssay (NCI):
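In this assay, cells in 96-well plates receive the compound at five concentrations for 48 hours. Endpoints are linearly interpolated between the surrounding concentrations. At the GI50, growth is halved. TGI marks complete inhibition of growth.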

What was measured:
Test in all cases: DTP human tumour cell line panel, 48 h
[1] = system: HCT-15 colon
[2] = system: SF-539 CNS
[3] = system: NCI-H460 lung
[4] = system: A549 NSCLC
[5] = system: HOP-92 NSCLC
[6] = system: TK-10 renal
[7] = system: UO-31 renal
[8] = system: SN12C renal
[9] = system: OVCAR-5 ovarian
[10] = system: UACC-257 melanoma

| SMILES | GI50 [1] | TGI [1] | GI50 [2] | TGI [2] | GI50 [3] | TGI [3] | GI50 [4] | TGI [4] | GI50 [5] | TGI [5] | GI50 [6] | TGI [6] | GI50 [7] | TGI [7] | GI50 [8] | TGI [8] | GI50 [9] | TGI [9] | GI50 [10] | TGI [10] |
| --- | --- | --- | --- | --- | --- | --- | --- | --- | --- | --- | --- | --- | --- | --- | --- | --- | --- | --- | --- | --- |
| COc1ccc(C(CC(=O)c2ccccc2)C(C(=O)c2ccccc2)C(c2ccc(OC)cc2)C2C(=O)NC(=O)NC2=O)cc1 (centres undefined) | 21.9 µM | > 100 µM | 17.8 µM | 63.2 µM | 7.14 µM | > 100 µM | 15.9 µM | > 100 µM | 2.3 µM | 50.2 µM | 43.2 µM | > 100 µM | 13.5 µM | 47.7 µM | 24.2 µM | > 100 µM | 17.4 µM | 56.8 µM | 14.1 µM | 69.3 µM |
| O=C1OCC(c2ccc(O)c(O)c2)=C1c1cc(O)c(O)c(O)c1 | 19.3 µM | 44.1 µM | 22.8 µM | 47.9 µM | 35.3 µM | > 100 µM | 21.6 µM | 76 µM | 2.76 µM | 18.2 µM | 73.1 µM | > 100 µM | 63.4 µM | > 100 µM | 15.8 µM | 29.6 µM | 17.7 µM | 34.6 µM | 93.8 µM | > 100 µM |
| CCCC[C@@H]1NC(=O)[C@H](CCCCN)NC(=O)[C@H](CCCNC(=N)N)NC(=O)[C@H](CC(C)C)NC(=O)[C@@H](NC(=O)[C@H](Cc2cccc(Cl)c2)NC(=O)[C@@H]2CCCN2C(=O)[C@@H](NC(C)=O)C(C)C)CCSSC[C@@H](C(=O)N[C@@H](CCCCN)C(=O)N2CCC[C@H]2C(=O)N2CCC[C@H]2C(=O)N[C@@H](CCC(=O)O)C(N)=O)NC(=O)[C@H](Cc2ccccc2)NC(=O)[C@H](CO)NC(=O)[C@H](C)NC(=O)[C@@H]2CCCN2C1=O | > 50 µM | > 50 µM | > 50 µM | > 50 µM | > 50 µM | > 50 µM | > 50 µM | > 50 µM | > 50 µM | > 50 µM | > 50 µM | > 50 µM | > 50 µM | > 50 µM | > 50 µM | > 50 µM | > 50 µM | > 50 µM | > 50 µM | > 50 µM |
| CC1(C)CCC(S(=O)(=O)c2ccc3c(c2)/C(=N\O)c2cc(S(=O)(=O)N4CCC(O)(c5cccc(C(F)(F)F)c5)CC4)ccc2-3)CC1 | 0.0694 µM | 4.52 µM | 0.0204 µM | 0.0448 µM | 0.0261 µM | 0.0613 µM | 0.034 µM | 1.05 µM | 0.517 µM | 3.48 µM | 0.0441 µM | 0.393 µM | 1.67 µM | 5.49 µM | 0.0612 µM | 2.2 µM | 0.0317 µM | 0.148 µM | 0.0665 µM | 1.11 µM |
| O=S(=O)(Nc1ccc(-c2nc(-c3cccc(OCCN4CCOCC4)c3)c(-c3ccnc(Br)c3)[nH]2)cc1)c1ccccc1 | 1.74 µM | 6.79 µM | 3.68 µM | > 100 µM | 3.45 µM | > 100 µM | 3.35 µM | > 100 µM | 2.41 µM | 8.18 µM | 4.16 µM | > 100 µM | 2.92 µM | > 100 µM | 5.37 µM | > 100 µM | 5.99 µM | > 100 µM | 3.03 µM | 12 µM |
| O=C(Cc1ccccc1)Oc1ccc2c(-c3ccccc3)c(C(=O)Nc3ccc(Cl)cc3)c(=O)oc2c1 |  | > 100 µM |  | > 100 µM |  | > 100 µM |  | > 100 µM |  | > 100 µM |  | > 100 µM |  | > 100 µM |  | > 100 µM |  | > 100 µM |  | > 100 µM |
| COc1ccc(-c2cc(C(=O)Nc3cccc(C(F)(F)F)c3)[nH]c(=S)n2)cc1 |  | > 100 µM |  | > 100 µM |  | > 100 µM |  | > 100 µM |  | > 100 µM |  | > 100 µM |  | > 100 µM |  | > 100 µM |  | > 100 µM |  | > 100 µM |
| CC(NC(=O)c1ccccc1)C(=O)N(Cc1ccccc1)Cc1ccccc1 (centres undefined) |  | 88.9 µM |  | > 100 µM |  | 65.4 µM |  | > 100 µM |  | 68.7 µM |  | > 100 µM |  | 83.9 µM |  | > 100 µM |  | > 100 µM |  | > 100 µM |
| O=C(Cn1ccnc1[N+](=O)[O-])N(CCO)CCO | > 1250 µM | > 1250 µM | > 1250 µM | > 1250 µM | > 250 µM | > 1250 µM | > 1250 µM | > 1250 µM | > 250 µM | > 1250 µM |  | > 250 µM | > 1250 µM | > 1250 µM | > 1250 µM | > 1250 µM | > 1250 µM | > 1250 µM | > 1250 µM | > 1250 µM |
